Experimental data reported in patent US20260137653A1, “USE OF HEROMBOPAG OR PHARMACEUTICALLY ACCEPTABLE SALT THEREOF IN TREATMENT OF TUMOR CHEMOTHERAPY-INDUCED THROMBOCYTOPENIA” (JIANGSU HENGRUI PHARMACEUTICALS CO., LTD., priority 2022, published 2026).

Test system: patients with chemotherapy-induced thrombocytopenia (platelet count <75×10^9/L, chemotherapy delay ≥1 week)
Assay: Randomized placebo-controlled clinical study of herombopag olamine tablets in thrombocytopenia induced by chemotherapy for malignant tumors (Example 1)
Type: in vivo, human
Procedure: Investigational drug: herombopag olamine tablets, 2.5 mg/tablet, manufactured and provided by Jiangsu Hengrui Pharmaceuticals Co., Ltd.
Control drug: herombopag olamine simulated tablets (placebo), 2.5 mg/tablet, identical in shape, color, weight, etc. to the herombopag olamine tablets, manufactured and provided by Jiangsu Hengrui Pharmaceuticals Co., Ltd.
Patients must meet all of the following inclusion criteria to be eligible for the study: • 1. Age between 18 years and 75 years (inclusive), regardless of gender. • 2. Pathologically or cytologically confirmed diagnosis of malignant tumors, including lung cancer (small cell or non-small cell), breast cancer, bladder cancer, etc. • 3. The subject is currently receiving a chemotherapy regimen on a 21-day cycle (excluding other chemotherapy cycle lengths) and requires the use of one or more chemotherapeutic drugs, such as: • Antimetabolites, including gemcitabine, etc.; • Platinum-based agents, including carboplatin, nedaplatin, cisplatin, lobaplatin, etc.; • Anthracyclines, including doxorubicin, daunorubicin, epirubicin, etc.; • Alkylating agents, including cyclophosphamide, ifosfamide, etc. • 4. The subject experiences a delay of ≥1 week in chemotherapy relative to the expected time due to thrombocytopenia, and the platelet count remains <75×10^9/L. • 5. Physical fitness status ECOG score of 0-1. • 6. The subject has an expected survival period of ≥12 weeks at the time of screening and is able to receive at least 2 or more cycles of the current chemotherapy regimen. • 7. Subjects of childbearing potential must agree to use reliable methods of contraception throughout the study (including male or female condoms, contraceptive foams, contraceptive gels, contraceptive films, contraceptive creams, contraceptive suppositories, abstinence, placement of intrauterine devices, etc.). Female subjects who have undergone a hysterectomy, bilateral salpingectomy, or bilateral tubal ligation or have been postmenopausal for more than 1 year and male subjects who have undergone a bilateral vasectomy or ligation are excluded. • 8. The subject is willing to participate in the study, can provide written informed consent, and has good compliance.
Patients meeting any one of the following criteria are excluded from the study: • 1. Screening or baseline platelet count of <30×10^9/L. • 2. Platelet count of <75×10^9/L prior to the first dose of chemotherapy. • 3. Hematopoietic diseases other than chemotherapy-induced thrombocytopenia (CIT), including but not limited to leukemia, primary immune thrombocytopenia, myeloproliferative diseases, multiple myeloma, and myelodysplastic syndrome. • 4. […]

CC1=NN(c2ccc3c(c2)CCCC3)C(=O)/C1=N\Nc1cccc(-c2ccc(C(=O)O)o2)c1O [herombopag olamine tablets, herombopag]
OR value for achieving the primary study endpoint, investigational group vs placebo group (95% CI 2.82-38.65, p=0.0001): 10.44 | proportion of subjects in which the drug is therapeutically effective (patients achieving the primary study endpoint) (investigational group n=28 (17/28), starting dose 7.5 mg once daily oral, two consecutive 21-day chemotherapy cycles, 95% CI 40.6-78.5, placebo 4/31 (12.9%)): 60.7% | incidence of adverse events (investigational group vs placebo group): comparable between the investigational group and the placebo group | grade 3 or higher grade treatment-related adverse events or treatment-related serious adverse events (investigational group, starting dose 7.5 mg once daily): No grade 3 or higher grade treatment-related adverse events or treatment-related serious adverse events were observed
